Test results from patent EP0678516B1, “Preparation of 2-bromo-5-(2-bromo-2-nitrovinyl)-furan and its use as microcide” (CENTRO DE BIOACTIVOS QUIMICOS DE LA UNIVERSIDAD CENTRAL DE …, priority 1994, dated 1995).

Tests used:
[1] = system: septic puerperal metritis; experiment: Treatment of septic puerperal metritis; assay type: in vivo, female oxes; details: G-1 1.5% oil solution intrauterine, Tetracycline abdominal aorta route
Protocol: The treatment consisted in applying 40 ml for three consecutive days at intervals of 24 hours from the diagnosis of the disease process. Treatment was compared with intrasoric tetracyclin.

[2] = system: Bovine infectious queratoconjunctivitis; experiment: Clinical test, external treatment of eye infections in animals (extension); assay type: in vivo; details: Cattle (E)
Description: (§1) The effectiveness of the active principle against bacterial eye diseases in: 9435 animal eyes affected with queratoconjunctivitis; 8093 of cattle and 1342 of other species (sheep, rabbits, dogs, horses, pigs, cats, guinea-pigs and birds).
(§2) In some cases the result of the medicament was compared with others habitually used for these treatments.
(§3) Read: 1 = Bovine infectious queratoconjunctivitis (PE) = small scale or clinical test in conditions controlled on a small scale (U) = ointment (I) = injectable n = number of eyes treated P± = Average of treatment for clinical recuperation (weighted average) Rc = clinical recuperation 2 = conjunctivitis 3 = Querratitis 4= Queratoconjunctivitis 5= Blefaritis 6= general eye infection 7= clinical extension or test compared in conditions of extension (*) = Massive application in therapeutic survey in the new different animal species (G-1) = refers to 2-bromo-5-(2-bromo-2-nitro-vinyl)-furan

[3] = system: conjunctivitis, Querratitis, Queratoconjunctivitis; experiment: Clinical test, external treatment of eye infections in animals; assay type: in vivo; details: Dogs
Description: as §1, §2, §3

[4] = system: conjunctivitis and Blefaritis; experiment: as above; assay type: in vivo; details: Rabbits
Description: as §1, §2, §3

[5] = system: Streptococcus agalactiae and Staphylococcus aureus; experiment: Intracisternal treatment of clinical mastitis; assay type: in vivo, femal oxes
Description: The active principle in a concentration of 0.1 % is applied by intracisternal route daily for three consecutive days in femal oxes clinically affected by mastitis of morbid catarrh purulen course types, in which the isolated micro-organisms were Streptococcus agalactiae and Staphylococcus aureus. As a control medicament the mammary infusion of neomicine was used.

[6] = system: Bovine infectious queratoconjunctivitis; experiment: Clinical test, external treatment of eye infections in animals; assay type: in vivo; details: Cows (PE), small scale controlled clinical test
Description: as §1, §2, §3

`CN(C)[C@@H]1C(O)=C(C(N)=O)C(=O)[C@@]2(O)C(O)=C3C(=O)c4c(O)cccc4[C@@](C)(O)[C@H]3C[C@@H]12` [Tetracycline, reference compound] was tested, and the Recuperated n ([1]; 27 females, 19 females) was 13, the “IIA (Artificial insemination index)” value [1] was 1.78± 1.99b and the Recuperated % [1] was 68.4%. The “T-R (Average of treatment interval of clinical recuperation)” value [1] was 39 days and the “IIA (Artificial insemination index)” value ([1]; listed as tetracycline) was 1.78 ± 1.99.
`O=C(N[C@H](CO)[C@H](O)c1ccc([N+](=O)[O-])cc1)C(Cl)Cl` [Chloran-fenicol-(U), Chloran-fenicol] was tested, and the “P± (Average of treatment for clinical recuperation, weighted average)” value [2] was 3.4a, the “Re (clinical recuperation)” value [2] was 86.6a % and the “P± (Average of treatment for clinical recuperation, weighted average)” value [3] was 7.3b. The “Re (clinical recuperation)” value [3] was 81.5a % and the “P± (Average of treatment for clinical recuperation, weighted average)” value [4] was 3.2a.
In the case of neomicine [reference compound], the “Recuperated n (affected parts)” value ([5]; G-I 0.1% intracisternal daily for three days (57 parts), neomicine mammary infusion (12 parts)) is reported as 12 and the “Recuperated % (clinical recuperation of the affected parts)” value ([5]; G-I 0.1% intracisternal daily for three days, neomicine mammary infusion) is reported as 100%.
With `O=C(N[C@H](CO)[C@H](O)c1ccc([N+](=O)[O-])cc1)C(Cl)Cl` [Chloran-fenicol-(I), Chloran-fenicol] the “P± (Average of treatment for clinical recuperation, weighted average)” value [6] was 3.1ab and the “Re (clinical recuperation)” value [6] was 80.6ba %.
